Test systems include MALME-3M melanoma; SNB-19 CNS; TK-10 renal; SF-268 CNS; NCI-H522 lung; SK-MEL-2 melanoma; SK-MEL-5 melanoma; HOP-92 NSCLC; SR leukemia.
Common to all, as to assay: inhibition of tumour cell growth, NCI panel, 48 h

Molecules are shown by their SMILES. Several values for one entry are separate records, joined by “and”; a condition that tells them apart may be missing. Equal entries are not always repeated.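 Growth conditions: 96-well plates. Treatment: test compound, 48 hours, 5 concentrations. Analysis: linear interpolation between bracketing concentrations; unreached endpoints set to highest concentration. GI50 = concentration required for 50% inhibition of growth. TGI is the concentration that stops growth completely.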

With `Cn1c(=O)c(NC(=O)C(Cl)(Cl)Cl)nc2ccccc21`, the TGI in the assay with MALME-3M melanoma, with SNB-19 CNS, in the assay on TK-10 renal, in the assay with SF-268 CNS, in the assay with NCI-H522 lung and with SK-MEL-2 melanoma was greater than 100 µM in each case. In the assay with SK-MEL-5 melanoma, this compound had a TGI greater than 100 µM.

For the compound `COC(=O)C1=C(c2ccc(OC)c(OC)c2)OC(c2cc(OC)c(OC)c(OC)c2)C1` (stereo unspecified), the TGI in the assay on MALME-3M melanoma is greater than 100 µM; in the assay with HOP-92 NSCLC, 65.2 µM; with TK-10 renal, greater than 100 µM; with SF-268 CNS, greater than 100 µM; in the assay with SK-MEL-2 melanoma it was greater than 100 µM; in the assay on SK-MEL-5 melanoma, greater than 100 µM.

For `O=C(CCC(=O)Nc1ccc(Cl)c(Cl)c1)CC(=O)c1ccc(F)cc1`, the TGI with MALME-3M melanoma, in the assay on HOP-92 NSCLC, in the assay on SNB-19 CNS, with SF-268 CNS, with SK-MEL-5 melanoma and with SR leukemia was greater than 100 µM each time.

On to `CN(C)c1nnnn1-c1c(N)n(C)c(=O)n(C)c1=O`, for which the TGI in the assay with MALME-3M melanoma, in the assay with HOP-92 NSCLC, with SNB-19 CNS, with TK-10 renal, with SF-268 CNS and in the assay on NCI-H522 lung was greater than 100 µM throughout. In addition, the TGI in the assay on SK-MEL-2 melanoma and in the assay with SK-MEL-5 melanoma was greater than 100 µM throughout.

As to `CC1=CC(=O)C(C(C)C)=CC1=Nc1cc(Br)c(O)c(Br)c1`, the GI50 with MALME-3M melanoma was 14.1 µM; in the assay on HOP-92 NSCLC, 11.5 µM; with SNB-19 CNS, 9.95 µM; with TK-10 renal, 11.7 µM; in the assay on SF-268 CNS, 4.49 µM; with NCI-H522 lung, 4.42 µM. Besides, the values for the GI50 with SK-MEL-2 melanoma, in the assay on SK-MEL-5 melanoma and with SR leukemia were 8.94 µM, 3.15 µM and 3.45 µM, respectively. Moreover, the TGI with MALME-3M melanoma came to 33.4 µM; with HOP-92 NSCLC, 40.8 µM; with SNB-19 CNS, 26.1 µM; in the assay with TK-10 renal, 31.4 µM; in the assay with SF-268 CNS it was 17.2 µM; with NCI-H522 lung, 18 µM. Besides, the results for the TGI in the assay on SK-MEL-2 melanoma, in the assay on SK-MEL-5 melanoma and with SR leukemia were 30.1 µM, 10.7 µM and 15.8 µM, respectively.

For the compound `CCCCCCCCCCCCCCCCNCCCN(C)CCCN`, the TGI came to 31.5 µM in the assay on SNB-19 CNS; 29.3 µM in the assay on TK-10 renal; 34.9 µM in the assay on SF-268 CNS; 32.3 µM in the assay with NCI-H522 lung; 41.8 µM with SK-MEL-2 melanoma; 31.4 µM in the assay with SK-MEL-5 melanoma. Besides, the TGI with SR leukemia turned out to be 42.2 µM.

As to `COc1cc(NS(C)(=O)=O)ccc1Nc1c2ccccc2nc2ccccc12`, the GI50 with MALME-3M melanoma was 1.27 µM and 0.511 µM and 0.515 µM; in the assay on HOP-92 NSCLC it was 2.59 µM and 0.604 µM; with SNB-19 CNS, 0.528 µM and 0.464 µM and 0.495 µM; in the assay with TK-10 renal, 4.72 µM and 0.854 µM and 0.911 µM; with SF-268 CNS, 1.14 µM and 0.483 µM and 0.511 µM; in the assay with NCI-H522 lung, 3.27 µM and 0.552 µM. The GI50 is 18 µM and 4.55 µM and 5.73 µM with SK-MEL-2 melanoma; 0.618 µM and 0.282 µM in the assay on SK-MEL-5 melanoma; 0.0475 µM and 0.0245 µM in the assay with SR leukemia.

As to `CCOc1ccc2c(c1)[n+]([O-])c(-c1ccc(Br)cc1)c(N)[n+]2[O-]`, the TGI in the assay on MALME-3M melanoma was greater than 100 µM; in the assay on SNB-19 CNS, greater than 100 µM; with TK-10 renal, greater than 100 µM; with SF-268 CNS it was greater than 100 µM; in the assay with NCI-H522 lung, 33.7 µM; in the assay on SK-MEL-2 melanoma, greater than 100 µM. Moreover, the TGI in the assay with SK-MEL-5 melanoma was determined as 40.9 µM.

Turning to `CN(C)c1ccc(/C=C/c2ccc(/C=C/c3ccc(N(C)C)cc3)cc2)cc1`, the TGI with MALME-3M melanoma, in the assay with HOP-92 NSCLC, with SNB-19 CNS, in the assay on TK-10 renal, in the assay on SF-268 CNS and with NCI-H522 lung was greater than 100 µM in each case. Further, the TGI in the assay with SK-MEL-2 melanoma and with SK-MEL-5 melanoma was greater than 100 µM each time.

As for `C[N+](C)(C)CC1CCC/C1=N/O` (stereo unspecified), the TGI in the assay with MALME-3M melanoma, in the assay with HOP-92 NSCLC, in the assay on SNB-19 CNS, in the assay with TK-10 renal, in the assay on SF-268 CNS and with NCI-H522 lung was greater than 100 µM in each case. The TGI in the assay on SK-MEL-2 melanoma was greater than 100 µM; in the assay with SK-MEL-5 melanoma it was greater than 100 µM; in the assay with SR leukemia, 54.2 µM.

Consider `Cc1nnc2c3nnc(C)n3c3ccccc3n12`, for which the TGI in the assay with MALME-3M melanoma, with HOP-92 NSCLC, in the assay on SNB-19 CNS, in the assay with TK-10 renal, in the assay with SF-268 CNS and in the assay with NCI-H522 lung was greater than 100 µM each time. The TGI in the assay with SK-MEL-2 melanoma and in the assay on SK-MEL-5 melanoma was greater than 100 µM throughout.

Regarding `N#CC1CCCCOCCOCCOCCOCCOCCCCCC1=O` (stereo unspecified), the TGI with MALME-3M melanoma, in the assay with SNB-19 CNS, with TK-10 renal, with SF-268 CNS, with NCI-H522 lung and with SK-MEL-2 melanoma was greater than 100 µM in each case. The TGI in the assay with SK-MEL-5 melanoma and with SR leukemia was greater than 100 µM in each case.

For the compound `O=C(/C=C/c1ccco1)c1ccc(NCc2nc3ccccc3[nH]2)cc1`, the TGI in the assay on MALME-3M melanoma was 33.2 µM; with HOP-92 NSCLC it was 30.6 µM; in the assay with SNB-19 CNS, 30.6 µM; in the assay with TK-10 renal, 39.1 µM; in the assay with SF-268 CNS, 46.4 µM; in the assay with NCI-H522 lung, 21.4 µM. Besides, the TGI in the assay on SK-MEL-2 melanoma was 34.9 µM; in the assay on SK-MEL-5 melanoma it was 28.6 µM; with SR leukemia it was 37.7 µM.

On to `S=c1nc(COc2ccc(Cl)cc2Cl)[nH][nH]1`, for which the TGI with MALME-3M melanoma, in the assay on HOP-92 NSCLC, with SNB-19 CNS, in the assay on TK-10 renal, in the assay on SF-268 CNS and in the assay on SK-MEL-2 melanoma was greater than 100 µM in each case. Besides, the TGI with SK-MEL-5 melanoma and in the assay on SR leukemia was greater than 100 µM each time.

For the compound `CS(=O)(=O)NNS(=O)(=O)c1ccccc1`, the TGI with MALME-3M melanoma, in the assay with SNB-19 CNS, in the assay with TK-10 renal, with SF-268 CNS, in the assay with NCI-H522 lung and in the assay on SK-MEL-2 melanoma was greater than 100 µM in each case. Besides, the TGI in the assay with SK-MEL-5 melanoma and in the assay on SR leukemia was greater than 100 µM throughout.

These data come from PubChem BioAssay (NCI).
